# PubChem BioAssay (NCI)
# Several values for one entry are separate records, joined by “and”; a condition that tells them apart may be missing. Equal entries are not always repeated.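 Briefly, cells in 96-well plates were exposed to five compound concentrations for 48 h, and endpoints were estimated by linear interpolation. At the GI50, growth is halved. TGI marks complete inhibition of growth.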
# System: NCI-H23 lung
# Assay: DTP human tumour cell line panel, 48 h
SMILES,TGI,GI50
CC[C@]1(Cc2ccc(OC)c(OC)c2)C=[N+]([O-])O[C@H](OC2CCCC2(c2ccccc2)c2ccccc2)[C@@H]1OC(C)=O (stereo not given in full),19.9 µM,–
COc1ccc2c(c1)nnn1c3ncccc3c(N=O)c21,13.5 µM and 6.43 µM,5.17 µM and 1.84 µM

# System: NCI-H460 lung
# Assay: DTP human tumour cell line panel, 48 h
SMILES,GI50,TGI
CCC1CN2C(=N1)c1ccccc1-c1cc(Cl)ccc12 (stereo not given),2.15 µM,10.5 µM
CC1(N)CCN(c2cccnc2NC(=O)c2nc(-c3ncccc3C(F)(F)F)cnc2N)CC1,41.1 µM,> 100 µM
CC[C@]1(Cc2ccc(OC)c(OC)c2)C=[N+]([O-])O[C@H](OC2CCCC2(c2ccccc2)c2ccccc2)[C@@H]1OC(C)=O (stereo not given in full),–,20.7 µM
COc1ccc2c(c1)nnn1c3ncccc3c(N=O)c21,1.67 µM and 2.19 µM,8.12 µM and 7.8 µM

# System: NCI-H522 lung
# Assay: DTP human tumour cell line panel, 48 h
SMILES,GI50 [µM],TGI [µM]
CCC1CN2C(=N1)c1ccccc1-c1cc(Cl)ccc12 (stereo not given),2.58,8.19
CC1(N)CCN(c2cccnc2NC(=O)c2nc(-c3ncccc3C(F)(F)F)cnc2N)CC1,15.1,47.9
CC[C@]1(Cc2ccc(OC)c(OC)c2)C=[N+]([O-])O[C@H](OC2CCCC2(c2ccccc2)c2ccccc2)[C@@H]1OC(C)=O (stereo not given in full),–,9.77
COc1ccc2c(c1)nnn1c3ncccc3c(N=O)c21,1.25,6.49

# System: NCI/ADR-RES ovarian
# Assay: DTP human tumour cell line panel, 48 h
SMILES,GI50,TGI
CCC1CN2C(=N1)c1ccccc1-c1cc(Cl)ccc12 (stereo not given),3.7 µM,18.4 µM
CC1(N)CCN(c2cccnc2NC(=O)c2nc(-c3ncccc3C(F)(F)F)cnc2N)CC1,68.7 µM,> 100 µM
CC[C@]1(Cc2ccc(OC)c(OC)c2)C=[N+]([O-])O[C@H](OC2CCCC2(c2ccccc2)c2ccccc2)[C@@H]1OC(C)=O (stereo not given in full),–,14.8 µM
COc1ccc2c(c1)nnn1c3ncccc3c(N=O)c21,1.42 µM and 1.28 µM,10.6 µM and 12.6 µM

# System: OVCAR-3 ovarian
# Assay: DTP human tumour cell line panel, 48 h
SMILES,GI50,TGI
CCC1CN2C(=N1)c1ccccc1-c1cc(Cl)ccc12 (stereo not given),3.48 µM,9.9 µM
CC1(N)CCN(c2cccnc2NC(=O)c2nc(-c3ncccc3C(F)(F)F)cnc2N)CC1,26.2 µM,> 100 µM
CC[C@]1(Cc2ccc(OC)c(OC)c2)C=[N+]([O-])O[C@H](OC2CCCC2(c2ccccc2)c2ccccc2)[C@@H]1OC(C)=O (stereo not given in full),–,4.13 µM
COc1ccc2c(c1)nnn1c3ncccc3c(N=O)c21,1.11 µM and 2.41 µM,5.18 µM and 7.68 µM

# System: OVCAR-4 ovarian
# Assay: DTP human tumour cell line panel, 48 h
SMILES,GI50,TGI
CCC1CN2C(=N1)c1ccccc1-c1cc(Cl)ccc12 (stereo not given),3.97 µM,28.6 µM
CC1(N)CCN(c2cccnc2NC(=O)c2nc(-c3ncccc3C(F)(F)F)cnc2N)CC1,21.5 µM,> 100 µM
CC[C@]1(Cc2ccc(OC)c(OC)c2)C=[N+]([O-])O[C@H](OC2CCCC2(c2ccccc2)c2ccccc2)[C@@H]1OC(C)=O (stereo not given in full),–,25.5 µM
COc1ccc2c(c1)nnn1c3ncccc3c(N=O)c21,1.29 µM and 3.11 µM,16.6 µM and > 100 µM

# System: OVCAR-5 ovarian
# Assay: DTP human tumour cell line panel, 48 h
SMILES,GI50,TGI
CCC1CN2C(=N1)c1ccccc1-c1cc(Cl)ccc12 (stereo not given),4.48 µM,29.6 µM
CC1(N)CCN(c2cccnc2NC(=O)c2nc(-c3ncccc3C(F)(F)F)cnc2N)CC1,20 µM,> 100 µM
CC[C@]1(Cc2ccc(OC)c(OC)c2)C=[N+]([O-])O[C@H](OC2CCCC2(c2ccccc2)c2ccccc2)[C@@H]1OC(C)=O (stereo not given in full),–,44.2 µM
COc1ccc2c(c1)nnn1c3ncccc3c(N=O)c21,8.02 µM and 4.57 µM,23.2 µM and > 100 µM

# System: OVCAR-8 ovarian
# Assay: DTP human tumour cell line panel, 48 h
SMILES,GI50,TGI
CCC1CN2C(=N1)c1ccccc1-c1cc(Cl)ccc12 (stereo not given),3.32 µM,18.4 µM
CC1(N)CCN(c2cccnc2NC(=O)c2nc(-c3ncccc3C(F)(F)F)cnc2N)CC1,40.2 µM,> 100 µM
CC[C@]1(Cc2ccc(OC)c(OC)c2)C=[N+]([O-])O[C@H](OC2CCCC2(c2ccccc2)c2ccccc2)[C@@H]1OC(C)=O (stereo not given in full),–,7.98 µM
COc1ccc2c(c1)nnn1c3ncccc3c(N=O)c21,0.389 µM and 0.517 µM,21.4 µM and 3.73 µM

# System: PC-3 prostate
# Assay: DTP human tumour cell line panel, 48 h
SMILES,GI50 [µM],TGI [µM]
CCC1CN2C(=N1)c1ccccc1-c1cc(Cl)ccc12 (stereo not given),2.82,11.8
CC1(N)CCN(c2cccnc2NC(=O)c2nc(-c3ncccc3C(F)(F)F)cnc2N)CC1,30.9,> 100
CC[C@]1(Cc2ccc(OC)c(OC)c2)C=[N+]([O-])O[C@H](OC2CCCC2(c2ccccc2)c2ccccc2)[C@@H]1OC(C)=O (stereo not given in full),–,18.4
COc1ccc2c(c1)nnn1c3ncccc3c(N=O)c21,2.05,92.7

# System: RPMI-8226 leukemia
# Assay: DTP human tumour cell line panel, 48 h
SMILES,GI50,TGI
CC1(N)CCN(c2cccnc2NC(=O)c2nc(-c3ncccc3C(F)(F)F)cnc2N)CC1,24.4 µM,> 100 µM
COc1ccc2c(c1)nnn1c3ncccc3c(N=O)c21,0.261 µM and 1.08 µM,1.44 µM and 7.64 µM

# System: RXF 393 renal
# Assay: DTP human tumour cell line panel, 48 h
SMILES,GI50,TGI
CCC1CN2C(=N1)c1ccccc1-c1cc(Cl)ccc12 (stereo not given),3.5 µM,15 µM
CC1(N)CCN(c2cccnc2NC(=O)c2nc(-c3ncccc3C(F)(F)F)cnc2N)CC1,10.1 µM,32.4 µM
CC[C@]1(Cc2ccc(OC)c(OC)c2)C=[N+]([O-])O[C@H](OC2CCCC2(c2ccccc2)c2ccccc2)[C@@H]1OC(C)=O (stereo not given in full),–,4.35 µM
COc1ccc2c(c1)nnn1c3ncccc3c(N=O)c21,0.308 µM and 1.96 µM,3.14 µM and 10.9 µM

# System: SF-268 CNS
# Assay: DTP human tumour cell line panel, 48 h
SMILES,GI50,TGI
CCC1CN2C(=N1)c1ccccc1-c1cc(Cl)ccc12 (stereo not given),2.96 µM,11.6 µM
CC1(N)CCN(c2cccnc2NC(=O)c2nc(-c3ncccc3C(F)(F)F)cnc2N)CC1,31.5 µM,> 100 µM
CC[C@]1(Cc2ccc(OC)c(OC)c2)C=[N+]([O-])O[C@H](OC2CCCC2(c2ccccc2)c2ccccc2)[C@@H]1OC(C)=O (stereo not given in full),–,11.4 µM
COc1ccc2c(c1)nnn1c3ncccc3c(N=O)c21,0.465 µM and 1.73 µM,3.56 µM and 8.25 µM

# System: SF-295 CNS
# Assay: DTP human tumour cell line panel, 48 h
SMILES,GI50,TGI
CCC1CN2C(=N1)c1ccccc1-c1cc(Cl)ccc12 (stereo not given),3.91 µM,31.3 µM
CC1(N)CCN(c2cccnc2NC(=O)c2nc(-c3ncccc3C(F)(F)F)cnc2N)CC1,99.3 µM,> 100 µM
CC[C@]1(Cc2ccc(OC)c(OC)c2)C=[N+]([O-])O[C@H](OC2CCCC2(c2ccccc2)c2ccccc2)[C@@H]1OC(C)=O (stereo not given in full),–,17.5 µM
COc1ccc2c(c1)nnn1c3ncccc3c(N=O)c21,4.69 µM and 6.95 µM,15.3 µM and 32 µM

# System: SF-539 CNS
# Assay: DTP human tumour cell line panel, 48 h
SMILES,GI50,TGI
CCC1CN2C(=N1)c1ccccc1-c1cc(Cl)ccc12 (stereo not given),3.88 µM,14.8 µM
CC1(N)CCN(c2cccnc2NC(=O)c2nc(-c3ncccc3C(F)(F)F)cnc2N)CC1,14.4 µM,33.7 µM
COc1ccc2c(c1)nnn1c3ncccc3c(N=O)c21,0.467 µM and 1.51 µM,1.24 µM and 3.18 µM

# System: SK-MEL-2 melanoma
# Assay: DTP human tumour cell line panel, 48 h
SMILES,GI50 [µM],TGI [µM]
CCC1CN2C(=N1)c1ccccc1-c1cc(Cl)ccc12 (stereo not given),2.75,7.77
CC1(N)CCN(c2cccnc2NC(=O)c2nc(-c3ncccc3C(F)(F)F)cnc2N)CC1,50.9,> 100
CC[C@]1(Cc2ccc(OC)c(OC)c2)C=[N+]([O-])O[C@H](OC2CCCC2(c2ccccc2)c2ccccc2)[C@@H]1OC(C)=O (stereo not given in full),–,14.7
